The structures appear in SMILES notation. Numbers after ± are expanded uncertainties.

This is an account of results in the NIST ThermoML archive (doi:10.1021/je200195q).

This data set in a line: activity coefficient (dimensionless); of the first substance listed, at infinite dilution; xn = mol fraction of the nth substance listed. The conditions noted are these: 101 kPa, Liquid, Chromatography, x1 = 0.

Regarding `ClC(Cl)(Cl)Cl` [tetrachloromethane] + CCn1cc[n+](C)c1.CS(=O)(=O)[O-], the activity coefficient runs as follows: (312.55 K) 4.57 ± 0.31; (322.45 K) 4.79 ± 0.33; (332.45 K) 0.669 ± 0.045.

As to `CCCCCCCCCCCCCC` [tetradecane] + CCn1cc[n+](C)c1.CS(=O)(=O)[O-], the activity coefficient is, setting by setting: (312.55 K) 4070 ± 280; (322.45 K) 4000 ± 280; (332.45 K) 3830 ± 260.

In the case of `CC1CCCC1` [methylcyclopentane] + CCCCCC[n+]1ccn(C)c1.FC(F)(F)C(F)(F)[P-](F)(F)(F)(C(F)(F)C(F)(F)F)C(F)(F)C(F)(F)F, the activity coefficient is 4.58 ± 0.31 (312.8 K), 4.09 ± 0.28 (332.85 K) and 3.52 ± 0.24 (354.65 K).

Regarding `CCOCC` [diethyl ether] + CCn1cc[n+](C)c1.CS(=O)(=O)[O-], the activity coefficient was 21.8 ± 1.5 (312.55 K), 20.4 ± 1.4 (322.45 K) and 18 ± 1.2 (332.45 K).

As to `C1CCCCC1` [cyclohexane] + CCCCCC[n+]1ccn(C)c1.FC(F)(F)C(F)(F)[P-](F)(F)(F)(C(F)(F)C(F)(F)F)C(F)(F)C(F)(F)F, the activity coefficient is 4.78 ± 0.33 (312.8 K), 4.17 ± 0.28 (332.85 K) and 3.62 ± 0.25 (354.65 K).

As to `c1ccsc1` [thiophene] + CCn1cc[n+](C)c1.CS(=O)(=O)[O-], the activity coefficient (312.55 K) was 1.87 ± 0.13, the activity coefficient (322.45 K) came out at 1.91 ± 0.13 and the activity coefficient (332.45 K) stood at 1.95 ± 0.13.

Turning to `CC1CCCCC1` [methylcyclohexane] + CCCCn1cc[n+](C)c1.O=S(=O)([N-]S(=O)(=O)C(F)(F)C(F)(F)F)C(F)(F)C(F)(F)F, the activity coefficient (322.55 K) turned out to be 9.09 ± 0.62, the activity coefficient (342.75 K) was 7.96 ± 0.54 and the activity coefficient (362.65 K) amounted to 7.07 ± 0.48.

With `CCC(=O)CC` [pentan-3-one] + CCCCCC[n+]1ccn(C)c1.FC(F)(F)C(F)(F)[P-](F)(F)(F)(C(F)(F)C(F)(F)F)C(F)(F)C(F)(F)F, the activity coefficient is, setting by setting: (312.8 K) 0.236 ± 0.029; (332.85 K) 0.28 ± 0.03; (354.65 K) 0.301 ± 0.031.

In the case of `CCCC(C)=O` [pentan-2-one] + CCCCn1cc[n+](C)c1.O=S(=O)([N-]S(=O)(=O)C(F)(F)C(F)(F)F)C(F)(F)C(F)(F)F, the activity coefficient (322.55 K) is 0.666 ± 0.045, the activity coefficient (342.75 K) was found to be 0.686 ± 0.046 and the activity coefficient (362.65 K) came to 0.701 ± 0.047.

`CC1CCCCC1` [methylcyclohexane] + CCCCCC[n+]1ccn(C)c1.FC(F)(F)C(F)(F)[P-](F)(F)(F)(C(F)(F)C(F)(F)F)C(F)(F)C(F)(F)F: the activity coefficient (312.8 K) came out at 5.89 ± 0.4, the activity coefficient (332.85 K) turned out to be 5.23 ± 0.36 and the activity coefficient (354.65 K) came to 4.49 ± 0.31.

With `ClCCl` [dichloromethane] + CCCCCCCCCCn1cc[n+](CCCCCCCCCC)c1C.O=S(=O)([N-]S(=O)(=O)C(F)(F)F)C(F)(F)F, the activity coefficient by setting is: (323.1 K) 0.33 ± 0.032; (333.15 K) 0.341 ± 0.032; (343.15 K) 0.351 ± 0.032.

As to `CCCCCCCCC` [nonane] + CCCCCC[n+]1ccn(C)c1.FC(F)(F)C(F)(F)[P-](F)(F)(F)(C(F)(F)C(F)(F)F)C(F)(F)C(F)(F)F, the activity coefficient turned out to be 17.7 ± 1.2 (312.8 K), 15.5 ± 1.1 (332.85 K) and 12.4 ± 0.85 (354.65 K).

On to `C1CCCCCC1` [cycloheptane] + CCCCCCCCCCn1cc[n+](CCCCCCCCCC)c1C.O=S(=O)([N-]S(=O)(=O)C(F)(F)F)C(F)(F)F, for which the activity coefficient was 3.17 ± 0.22 (323.1 K), 4.46 ± 0.3 (333.15 K) and 6.09 ± 0.41 (343.15 K).

For `CCC(C)=O` [butanone] + CCCCn1cc[n+](C)c1.O=S(=O)([N-]S(=O)(=O)C(F)(F)C(F)(F)F)C(F)(F)C(F)(F)F, the activity coefficient amounted to 0.453 ± 0.036 (322.55 K), 0.389 ± 0.034 (342.75 K) and 0.351 ± 0.032 (362.65 K).

With `CC(C)CC(C)(C)C` [2,2,4-trimethylpentane] + CCCCCC[n+]1ccn(C)c1.FC(F)(F)C(F)(F)[P-](F)(F)(F)(C(F)(F)C(F)(F)F)C(F)(F)C(F)(F)F, the activity coefficient (312.8 K) amounted to 7.98 ± 0.54, the activity coefficient (332.85 K) stood at 7.13 ± 0.49 and the activity coefficient (354.65 K) was determined as 6.18 ± 0.42.

For `C[N+](=O)[O-]` [nitromethane] + CCCCCC[n+]1ccn(C)c1.FC(F)(F)C(F)(F)[P-](F)(F)(F)(C(F)(F)C(F)(F)F)C(F)(F)C(F)(F)F, the activity coefficient is, setting by setting: (312.8 K) 0.452 ± 0.036; (332.85 K) 0.438 ± 0.035; (354.65 K) 0.41 ± 0.034.

In the case of `c1ccsc1` [thiophene] + CCCCCC[n+]1ccn(C)c1.FC(F)(F)C(F)(F)[P-](F)(F)(F)(C(F)(F)C(F)(F)F)C(F)(F)C(F)(F)F, the activity coefficient by setting is: (312.8 K) 0.577 ± 0.041; (332.85 K) 0.602 ± 0.042; (354.65 K) 0.604 ± 0.042.

Turning to `ClC(Cl)(Cl)Cl` [tetrachloromethane] + CCCCCCCCCCn1cc[n+](CCCCCCCCCC)c1C.O=S(=O)([N-]S(=O)(=O)C(F)(F)F)C(F)(F)F, the activity coefficient (323.1 K) was determined as 0.776 ± 0.051, the activity coefficient (333.15 K) came to 0.777 ± 0.051 and the activity coefficient (343.15 K) was 0.777 ± 0.051.

In the case of `Cc1cccc(C)c1` [1,3-dimethylbenzene] + CCCCn1cc[n+](C)c1.O=S(=O)([N-]S(=O)(=O)C(F)(F)C(F)(F)F)C(F)(F)C(F)(F)F, the activity coefficient stood at 2.02 ± 0.14 (322.55 K), 2.03 ± 0.14 (342.75 K) and 2.09 ± 0.14 (362.65 K).

As to `CCCCCCCC` [octane] + CCCCCC[n+]1ccn(C)c1.FC(F)(F)C(F)(F)[P-](F)(F)(F)(C(F)(F)C(F)(F)F)C(F)(F)C(F)(F)F, the activity coefficient is, setting by setting: (312.8 K) 12.2 ± 0.83; (332.85 K) 10.5 ± 0.72; (354.65 K) 8.87 ± 0.6.

On to `C1COCCO1` [1,4-dioxane] + CCCCCCCCCCn1cc[n+](CCCCCCCCCC)c1C.O=S(=O)([N-]S(=O)(=O)C(F)(F)F)C(F)(F)F, for which the activity coefficient by setting is: (323.1 K) 0.463 ± 0.036; (333.15 K) 0.46 ± 0.036; (343.15 K) 0.453 ± 0.036.

On to `CC1CCCCC1` [methylcyclohexane] + CCCCCCCCCCn1cc[n+](CCCCCCCCCC)c1C.O=S(=O)([N-]S(=O)(=O)C(F)(F)F)C(F)(F)F, for which the activity coefficient is 1.52 ± 0.1 (323.1 K), 1.48 ± 0.098 (333.15 K) and 1.45 ± 0.095 (343.15 K).

Take `CCOCC` [diethyl ether] + CCCCn1cc[n+](C)c1.O=S(=O)([N-]S(=O)(=O)C(F)(F)C(F)(F)F)C(F)(F)C(F)(F)F: the activity coefficient reads like this: (322.55 K) 1.72 ± 0.12; (342.75 K) 1.7 ± 0.11; (362.65 K) 1.65 ± 0.11.

With `c1ccncc1` [pyridine] + CCCCCCCCCCn1cc[n+](CCCCCCCCCC)c1C.O=S(=O)([N-]S(=O)(=O)C(F)(F)F)C(F)(F)F, the activity coefficient turned out to be 0.328 ± 0.032 (323.1 K), 0.331 ± 0.032 (333.15 K) and 0.334 ± 0.032 (343.15 K).

As for `CC(C)O` [propan-2-ol] + CCCCn1cc[n+](C)c1.O=S(=O)([N-]S(=O)(=O)C(F)(F)C(F)(F)F)C(F)(F)C(F)(F)F, the activity coefficient turned out to be 1.77 ± 0.12 (322.55 K), 1.46 ± 0.096 (342.75 K) and 1.25 ± 0.08 (362.65 K).

In the case of `CC1CCCC1` [methylcyclopentane] + CCCCCCCCCCn1cc[n+](CCCCCCCCCC)c1C.O=S(=O)([N-]S(=O)(=O)C(F)(F)F)C(F)(F)F, the activity coefficient by setting is: (323.1 K) 1.35 ± 0.088; (333.15 K) 1.33 ± 0.086; (343.15 K) 1.3 ± 0.084.

Regarding `c1ccccc1` [benzene] + CCCCCCCCCCn1cc[n+](CCCCCCCCCC)c1C.O=S(=O)([N-]S(=O)(=O)C(F)(F)F)C(F)(F)F, the activity coefficient came to 0.429 ± 0.035 (323.1 K), 0.431 ± 0.035 (333.15 K) and 0.434 ± 0.035 (343.15 K).

In the case of `CCO` [ethanol] + CCCCCC[n+]1ccn(C)c1.FC(F)(F)C(F)(F)[P-](F)(F)(F)(C(F)(F)C(F)(F)F)C(F)(F)C(F)(F)F, the activity coefficient by setting is: (312.8 K) 2.1 ± 0.14; (332.85 K) 1.69 ± 0.11; (354.65 K) 1.31 ± 0.085.

As to `C=CCCCC` [hex-1-ene] + CCCCCC[n+]1ccn(C)c1.FC(F)(F)C(F)(F)[P-](F)(F)(F)(C(F)(F)C(F)(F)F)C(F)(F)C(F)(F)F, the activity coefficient came out at 3.67 ± 0.25 (312.8 K), 3.42 ± 0.23 (332.85 K) and 3.14 ± 0.21 (354.65 K).

On to `CCCCCCCCCCCC` [dodecane] + CCCCn1cc[n+](C)c1.O=S(=O)([N-]S(=O)(=O)C(F)(F)C(F)(F)F)C(F)(F)C(F)(F)F, for which the activity coefficient by setting is: (322.55 K) 77.8 ± 5.3; (342.75 K) 62 ± 4.2; (362.65 K) 50.9 ± 3.5.

As to `CC#N` [acetonitrile] + CCn1cc[n+](C)c1.CS(=O)(=O)[O-], the activity coefficient amounted to 1.26 ± 0.081 (312.55 K), 0.818 ± 0.053 (322.45 K) and 0.836 ± 0.054 (332.45 K).

For `CCOCC` [diethyl ether] + CCCCCC[n+]1ccn(C)c1.FC(F)(F)C(F)(F)[P-](F)(F)(F)(C(F)(F)C(F)(F)F)C(F)(F)C(F)(F)F, the activity coefficient is, setting by setting: (312.8 K) 0.837 ± 0.054; (332.85 K) 0.866 ± 0.055; (354.65 K) 0.897 ± 0.057.

Turning to `C=O` [methanal] + CCCCn1cc[n+](C)c1.O=S(=O)([N-]S(=O)(=O)C(F)(F)C(F)(F)F)C(F)(F)C(F)(F)F, the activity coefficient is, setting by setting: (322.55 K) 0.134 ± 0.029; (342.75 K) 0.155 ± 0.029; (362.65 K) 0.164 ± 0.029.

As for `Cc1ccccc1C` [1,2-dimethylbenzene] + CCCCCCCCCCn1cc[n+](CCCCCCCCCC)c1C.O=S(=O)([N-]S(=O)(=O)C(F)(F)F)C(F)(F)F, the activity coefficient turned out to be 0.626 ± 0.043 (323.1 K), 0.616 ± 0.043 (333.15 K) and 0.603 ± 0.042 (343.15 K).

With `CCC=O` [propanal] + CCn1cc[n+](C)c1.CS(=O)(=O)[O-], the activity coefficient is, setting by setting: (312.55 K) 2.76 ± 0.19; (322.45 K) 2.71 ± 0.18; (332.45 K) 2.65 ± 0.18.
